Data: ChEMBL document CHEMBL2074306, “Transport of bile acids in multidrug-resistance-protein 3-overexpressing cells co-transfected with the ileal Na+-dependent bile-acid transporter” (Biochem J, 2003)
Values belong to the compound of their own block, whether it stands above or below them.

Columns and labels:
Type in all cases: functional, cell membranes
Set-up in all cases: scale not given: the % may be the effect or the level left
[1] = target: Multidrug resistance associated protein (Homo sapiens) (UniProt Q96QA9); assay: TP_TRANSPORTER: inhibition of Etoposide glucuronide uptake (Etoposide glucuronide: 0.094 uM, MK-571: 20.0 uM) in membrane vesicles from MRP3-expressing Sf9 cells; conditions: Membrane vesicle
Multidrug resistance associated protein (Homo sapiens), sequence (Q96QA9 as listed by the source): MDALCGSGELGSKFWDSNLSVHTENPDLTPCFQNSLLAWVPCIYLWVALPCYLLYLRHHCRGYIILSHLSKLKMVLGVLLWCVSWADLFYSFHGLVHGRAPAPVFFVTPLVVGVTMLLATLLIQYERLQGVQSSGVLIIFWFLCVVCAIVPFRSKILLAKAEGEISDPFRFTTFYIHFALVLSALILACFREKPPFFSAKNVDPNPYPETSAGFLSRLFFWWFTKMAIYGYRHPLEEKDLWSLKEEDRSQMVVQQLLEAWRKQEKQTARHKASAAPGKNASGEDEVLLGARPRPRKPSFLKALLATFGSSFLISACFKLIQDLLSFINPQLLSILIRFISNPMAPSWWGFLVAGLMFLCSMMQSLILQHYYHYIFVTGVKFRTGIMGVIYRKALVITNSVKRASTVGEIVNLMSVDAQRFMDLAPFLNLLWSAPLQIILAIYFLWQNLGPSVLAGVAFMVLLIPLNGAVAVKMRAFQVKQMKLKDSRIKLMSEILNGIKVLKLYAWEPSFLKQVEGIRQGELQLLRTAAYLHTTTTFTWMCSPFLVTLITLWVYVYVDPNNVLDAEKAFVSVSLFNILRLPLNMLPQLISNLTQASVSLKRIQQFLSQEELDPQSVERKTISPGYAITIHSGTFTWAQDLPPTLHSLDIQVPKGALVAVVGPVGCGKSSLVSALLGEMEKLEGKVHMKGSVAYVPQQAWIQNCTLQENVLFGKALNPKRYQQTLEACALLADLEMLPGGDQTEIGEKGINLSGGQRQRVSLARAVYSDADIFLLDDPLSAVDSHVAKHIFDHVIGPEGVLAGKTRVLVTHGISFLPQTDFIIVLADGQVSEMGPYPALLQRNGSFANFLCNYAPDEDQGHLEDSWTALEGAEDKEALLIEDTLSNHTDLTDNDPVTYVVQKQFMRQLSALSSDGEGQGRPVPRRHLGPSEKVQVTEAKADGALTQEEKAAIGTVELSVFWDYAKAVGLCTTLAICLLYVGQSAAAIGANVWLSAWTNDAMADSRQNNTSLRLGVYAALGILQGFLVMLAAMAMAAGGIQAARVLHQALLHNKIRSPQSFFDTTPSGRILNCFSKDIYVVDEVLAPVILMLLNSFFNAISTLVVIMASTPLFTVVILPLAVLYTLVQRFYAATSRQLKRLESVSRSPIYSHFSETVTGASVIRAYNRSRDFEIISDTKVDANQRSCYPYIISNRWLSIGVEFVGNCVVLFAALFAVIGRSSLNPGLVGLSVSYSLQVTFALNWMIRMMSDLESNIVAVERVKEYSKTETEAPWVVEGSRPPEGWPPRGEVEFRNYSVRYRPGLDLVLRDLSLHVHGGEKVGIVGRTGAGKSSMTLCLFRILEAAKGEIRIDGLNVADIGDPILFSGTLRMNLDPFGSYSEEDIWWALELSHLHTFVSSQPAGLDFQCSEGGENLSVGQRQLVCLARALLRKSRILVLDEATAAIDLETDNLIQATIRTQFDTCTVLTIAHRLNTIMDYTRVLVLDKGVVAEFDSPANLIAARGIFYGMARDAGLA

[2] = target: Multidrug resistance associated protein (Homo sapiens) (UniProt Q96QA9); assay: TP_TRANSPORTER: inhibition of Etoposide glucuronide uptake (Etoposide glucuronide: 0.094 uM, MK571: 20 uM) by MK-571 at a concentration of 20uM in membrane vesicle from MRP3-expressing Sf9 cells
[3] = target: Multidrug resistance associated protein (Homo sapiens) (UniProt Q96QA9); assay: TP_TRANSPORTER: inhibition of Etoposide glucuronide uptake (Etoposide glucuronide: 0.094 uM, GLC-S: 20.0 uM) in membrane vesicles from MRP3-expressing Sf9 cells; conditions: Membrane vesicle
[4] = target: Multidrug resistance associated protein (Homo sapiens) (UniProt Q96QA9); assay: TP_TRANSPORTER: inhibition of Etoposide glucuronide uptake (Etoposide glucuronide: 0.094 uM, […] uM) by Glycolithocholate-3-sulfate at a concentration of 20uM in membrane vesicle from MRP3-expressing Sf9 cells
[5] = target: Multidrug resistance associated protein (Homo sapiens) (UniProt Q96QA9); assay: TP_TRANSPORTER: inhibition of Etoposide glucuronide uptake (Etoposide glucuronide: 0.094 uM, TDCA: 500.0 uM) in membrane vesicles from MRP3-expressing Sf9 cells; conditions: Membrane vesicle
[6] = target: Multidrug resistance associated protein (Homo sapiens) (UniProt Q96QA9); assay: TP_TRANSPORTER: inhibition of Etoposide glucuronide uptake (Etoposide glucuronide: 0.094 uM, TDCA: 500 uM) by Taurodeoxycholate at a concentration of 500uM in membrane vesicle from MRP3-expressing Sf9 cells
[7] = target: Multidrug resistance associated protein (Homo sapiens) (UniProt Q96QA9); assay: TP_TRANSPORTER: inhibition of Etoposide glucuronide uptake (Etoposide glucuronide: 0.094 uM, TCDC: 500 uM) by Taurochenodeoxycholate at a concentration of 500uM in membrane vesicle from MRP3-expressing Sf9 cells
[8] = target: Multidrug resistance associated protein (Homo sapiens) (UniProt Q96QA9); assay: TP_TRANSPORTER: inhibition of Etoposide glucuronide uptake (Etoposide glucuronide: 0.094 uM, TCDC: 500.0 uM) in membrane vesicles from MRP3-expressing Sf9 cells; conditions: Membrane vesicle
[9] = target: Multidrug resistance associated protein (Homo sapiens) (UniProt Q96QA9); assay: TP_TRANSPORTER: inhibition of Etoposide glucuronide uptake (Etoposide glucuronide: 0.094 uM, LC-S: 20.0 uM) in membrane vesicles from MRP3-expressing Sf9 cells; conditions: Membrane vesicle
[10] = target: Multidrug resistance associated protein (Homo sapiens) (UniProt Q96QA9); assay: TP_TRANSPORTER: inhibition of Etoposide glucuronide uptake (Etoposide glucuronide: 0.094 uM, Lithocholic acid-sulfate: 20 uM) by Lithocholate-3-sulfate at a concentration of 20uM in membrane vesicle from MRP3-expressing Sf9 cells
[11] = target: Multidrug resistance associated protein (Homo sapiens) (UniProt Q96QA9); assay: TP_TRANSPORTER: inhibition of Etoposide glucuronide uptake (Etoposide glucuronide: 0.094 uM, TLCAS: 50 uM) by Taurolithocholate-3-sulfate at a concentration of 50uM in membrane vesicle from MRP3-expressing Sf9 cells
[12] = target: Multidrug resistance associated protein (Homo sapiens) (UniProt Q96QA9); assay: TP_TRANSPORTER: inhibition of Etoposide glucuronide uptake (Etoposide glucuronide: 0.094 uM, TLC-S: 50.0 uM) in membrane vesicles from MRP3-expressing Sf9 cells; conditions: Membrane vesicle
[13] = target: Multidrug resistance associated protein (Homo sapiens) (UniProt Q96QA9); assay: TP_TRANSPORTER: inhibition of Etoposide glucuronide uptake (Etoposide glucuronide: 0.094 uM, GC: 500.0 uM) in membrane vesicles from MRP3-expressing Sf9 cells; conditions: Membrane vesicle
[14] = target: Multidrug resistance associated protein (Homo sapiens) (UniProt Q96QA9); assay: TP_TRANSPORTER: inhibition of Etoposide glucuronide uptake (Etoposide glucuronide: 0.094 uM, GC: 500 uM) by Glycocholate at a concentration of 500uM in membrane vesicle from MRP3-expressing Sf9 cells

SMILES: C[C@H](CCC(=O)NCC(=O)O)[C@H]1CC[C@H]2[C@@H]3CC[C@@H]4C[C@H](OS(=O)(=O)O)CC[C@]4(C)[C@H]3CC[C@]12C
Activity [3]: 29%
Activity [4]: 29%

SMILES: C[C@H](CCC(=O)O)[C@H]1CC[C@H]2[C@@H]3CC[C@@H]4C[C@H](OS(=O)(=O)O)CC[C@]4(C)[C@H]3CC[C@]12C
Activity [9]: 24%
Activity [10]: 24%

SMILES: C[C@H](CCC(=O)NCCS(=O)(=O)O)C1CC[C@H]2[C@@H]3CC[C@@H]4C[C@H](OS(=O)(=O)O)CC[C@]4(C)[C@H]3CC[C@]12C (some centres undefined)
Activity [11]: 8%
Activity [12]: 8%

The next lines start with the values.

Activity [1]: 40%
Activity [2]: 40%
SMILES: CN(C)C(=O)CCSC(SCCC(=O)O)c1cccc(/C=C/c2ccc3ccc(Cl)cc3n2)c1 (centres undefined)

Activity [5]: 9%
Activity [6]: 9%
SMILES: C[C@H](CCC(=O)NCCS(=O)(=O)O)[C@H]1CC[C@H]2[C@@H]3CC[C@@H]4C[C@H](O)CC[C@]4(C)[C@H]3C[C@H](O)[C@]12C

Activity [7]: 6%
Activity [8]: 6%
SMILES: C[C@H](CCC(=O)NCCS(=O)(=O)O)[C@H]1CC[C@H]2[C@@H]3[C@H](O)C[C@@H]4C[C@H](O)CC[C@]4(C)[C@H]3CC[C@]12C

Activity [13]: 30%
Activity [14]: 30%
SMILES: C[C@H](CCC(=O)NCC(=O)O)[C@H]1CC[C@H]2[C@@H]3[C@H](O)C[C@@H]4C[C@H](O)CC[C@]4(C)[C@H]3C[C@H](O)[C@]12C
